≈ marks a conversion by molar mass, not a printed value. A value given as a limit tells only on which side of the number the result lay.

The subject of experiment [1] is Salmonella enterica subsp. enterica. Briefly: Antibacterial activity against aacC-expressing Salmonella enterica subsp. enterica serovar Newport isolated from food animals. It is filed as functional, organism-based.
Experiment [2] shares this test system. The experiment can be described thus: Antibacterial activity against susceptible Salmonella enterica subsp. enterica serovar Newport isolated from food animals. The format is functional, organism-based.
The test system is the same in experiment [3]. The experiment can be described thus: Antibacterial activity against blaCMY-expressing Salmonella enterica subsp. enterica serovar Newport isolated from food animals. It is filed as functional.

What is called MIC is the lowest concentration found to suppress growth. A low value points to inhibition by little substance. Regarding GENTAMICIN, the MIC in experiment [1] was 1 µg/mL; in experiment [2] it was under 0.25 µg/mL.
In turn, `CO/N=C(\C(=O)N[C@@H]1C(=O)N2C(C(=O)O)=C(CSc3nc(=O)c(O)nn3C)CS[C@H]12)c1csc(N)n1` [CEFTRIAXONE] yielded an MIC in experiment [3] of 16 µg/mL (≈ 28.9 µM).
